Assays:
human OCT3 = target: T1, human OCT3 (Homo sapiens, UniProt O75751); test: SLC transporter substrate assay, HEK293-OCT3-LV vs control HEK293-Mock-LV cells; format: in vitro ADME
T1 construct: host or cells: HEK293-OCT3-LV
T1 sequence (O75751 1-556): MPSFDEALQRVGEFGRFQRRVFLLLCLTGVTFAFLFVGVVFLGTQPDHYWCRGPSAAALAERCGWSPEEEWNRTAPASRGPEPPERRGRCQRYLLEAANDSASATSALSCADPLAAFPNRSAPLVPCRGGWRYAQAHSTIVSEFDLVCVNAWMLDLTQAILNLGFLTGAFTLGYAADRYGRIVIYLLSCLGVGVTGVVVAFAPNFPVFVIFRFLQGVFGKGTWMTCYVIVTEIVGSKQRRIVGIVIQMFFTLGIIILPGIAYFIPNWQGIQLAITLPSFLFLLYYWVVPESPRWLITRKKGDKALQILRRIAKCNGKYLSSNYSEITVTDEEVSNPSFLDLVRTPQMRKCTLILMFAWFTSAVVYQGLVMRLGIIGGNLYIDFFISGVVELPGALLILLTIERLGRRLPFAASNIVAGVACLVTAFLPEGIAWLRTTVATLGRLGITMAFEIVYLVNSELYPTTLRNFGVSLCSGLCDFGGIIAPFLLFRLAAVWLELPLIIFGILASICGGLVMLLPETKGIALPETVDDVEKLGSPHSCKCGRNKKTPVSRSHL
Procedure: (§1) SI4. Results of transporter substrate assays (SLC)
Human Incubation Positive control substrate/ Control Special Incubation Assay […]
(Cell line) at 37°C [min] [h] […]
into transfected and control cells.
(§2) Fold accumulation = UPTTRP
PSMA-617 in SLC transporters.
NA: not analyzed. Test substances were considered as substrates in case of fold accumulation values > 2 combined with inhibition values higher than 50%.
4.7 Organic cation transporter OCT3
(HEK293-OCT3-LV) and control cells (HEK293-Mock-LV) applying 2- and 20-minute incubation periods, measured in SLC transporter substrate assay. […] Concentrations are nominal.
Table S16: ([α,β-3H]Nal)Lu-PSMA-617-accumulation in OCT3 transporter-expressing (HEK293-OCT3-LV) and control […]
Conditions Accumulation (pmol/mg protein)
Compound Nominal In OCT3 Fold concentration Minutes transporter In control Active accumulation
[µM] expressing cells transport
Positive control (accumulation in cpm)
MPP +: 1-methyl -4-phenylpyridinium.

human MATE1 = target: T2, human MATE1 (Homo sapiens, UniProt Q96FL8); test: SLC transporter substrate assay, MDCKII-MATE1-Fin vs control MDCKII-CAT-Fin cells
T2 sequence (Q96FL8 1-570): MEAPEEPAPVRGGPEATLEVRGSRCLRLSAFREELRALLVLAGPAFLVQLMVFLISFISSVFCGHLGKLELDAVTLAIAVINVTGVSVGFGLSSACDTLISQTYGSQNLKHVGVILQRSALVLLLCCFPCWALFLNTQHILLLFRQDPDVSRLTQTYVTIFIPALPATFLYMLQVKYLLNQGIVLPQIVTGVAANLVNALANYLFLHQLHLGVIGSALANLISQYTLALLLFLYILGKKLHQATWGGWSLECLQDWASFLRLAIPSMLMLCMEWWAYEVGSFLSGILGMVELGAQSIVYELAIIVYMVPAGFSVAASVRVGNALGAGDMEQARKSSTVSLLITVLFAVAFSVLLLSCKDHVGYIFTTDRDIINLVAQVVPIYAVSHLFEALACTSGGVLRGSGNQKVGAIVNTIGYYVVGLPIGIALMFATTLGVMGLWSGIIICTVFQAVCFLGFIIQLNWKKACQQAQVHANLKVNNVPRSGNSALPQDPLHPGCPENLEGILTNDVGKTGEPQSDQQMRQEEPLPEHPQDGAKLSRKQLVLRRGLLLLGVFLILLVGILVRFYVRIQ
Procedure: The described cells were plated onto standard 24-well tissue culture plates at densities of 5 × 10^5 cells/well. […] Before starting the experiment, the cells were prepared by removing the medium and washing the cells twice with 300 µL of assay buffer. […] The cells were lysed by adding 300 µL of 0.1N NaOH, they were incubated for 10 min at 37 °C and 100 µL samples were taken from all the wells.
The amount of protein in each well was quantified using the BCA kit for protein determination (Sigma-Aldrich, St Louis, MO, USA). Positive controls were performed using a separate 96-well plate format according to Table S8 in SI4.
as §1
Table S8: Parameters of positive controls, control cell lines and plating for SLC transporters assays.
KH: Krebs-Henseleit buffer, HBSS: Hank's balanced salt solution, MES: 2 -(N-morpholino) ethanesulfonic acid, cGMP:
Guanosine cyclic phosphate, E3S: Estrone -3-sulfate, Gly-Sar: Glycylsarcosine, MPP+: 1-methyl-4-phenylpyridinium.
Calculation of fold accumulation values for SLC transporter substrate assays The fold accumulation value was defined as the ratio of uptake of the test substance (TS) or probe substrate into transfected and control cells. If the fold accumulation is > 2 and can be inhibited by a known inhibitor of the transporter, the test substance can be considered as a substrate of the respective transporter.
as §2
• UPTTRP: accumulated amount of test substance (TS) or probe substrate in transfected cells normalized by protein content […]
• UPTCTRL: accumulated amount of test substance (TS) or probe substrate in control cells normalized by protein content […]
4.1 Multidrug and toxin extrusion protein MATE1
(MDCKII-MATE1-Fin) and control cells (MDCKII-CAT-Fin) applying 2- and 20-minute incubation periods, measured in SLC transporter substrate assay. […] Concentrations are nominal. […]
control cells (MDCKII-CAT-Fin) applying 2- and 20-minute incubation periods, measured in SLC transporter substrate […]
Compound Nominal In MATE1 Fold

[3H]C(c1ccc2ccccc2c1)C([3H])(NC(=O)C1CCC(CNC(=O)CN2CCN(CC(=O)[O-])CCN(CC(=O)[O-])CCN(CC(=O)[O-])CC2)CC1)C(=O)NCCCCC(NC(=O)NC(CCC(=O)O)C(=O)O)C(=O)O.[Lu+3] (stereo not drawn) [([α,β-^3H]Nal)Lu-PSMA-617]
Accumulation in OCT3 transporter expressing cells (human OCT3; 0.03 µM nominal, 2 min): 0.026 ± 0.005 pmol/mg protein | Accumulation in control cells (human OCT3; 0.03 µM nominal, 2 min): 0.022 ± 0.002 pmol/mg protein | Accumulation, active transport (human OCT3; 0.03 µM nominal, 2 min): 0.003 ± 0.005 pmol/mg protein | Fold accumulation (human OCT3; 0.03 µM nominal, 2 min): 1.15 | Accumulation in OCT3 transporter expressing cells (human OCT3; 0.03 µM nominal, 20 min): 0.041 ± 0.004 pmol/mg protein | Accumulation in control cells (human OCT3; 0.03 µM nominal, 20 min): 0.032 ± 0.005 pmol/mg protein | Accumulation, active transport (human OCT3; 0.03 µM nominal, 20 min): 0.009 ± 0.006 pmol/mg protein | Fold accumulation (human OCT3; 0.03 µM nominal, 20 min): 1.29 | Accumulation in OCT3 transporter expressing cells (human OCT3; 0.30 µM nominal, 2 min): 0.351 ± 0.047 pmol/mg protein | Accumulation in control cells (human OCT3; 0.30 µM nominal, 2 min): 0.277 ± 0.047 pmol/mg protein | Accumulation, active transport (human OCT3; 0.30 µM nominal, 2 min): 0.074 ± 0.067 pmol/mg protein | Fold accumulation (human OCT3; 0.30 µM nominal, 2 min): 1.27 | Accumulation in OCT3 transporter expressing cells (human OCT3; 0.30 µM nominal, 20 min): 0.446 ± 0.098 pmol/mg protein | Accumulation in control cells (human OCT3; 0.30 µM nominal, 20 min): 0.332 ± 0.047 pmol/mg protein | Accumulation, active transport (human OCT3; 0.30 µM nominal, 20 min): 0.113 ± 0.109 pmol/mg protein | Fold accumulation (human OCT3; 0.30 µM nominal, 20 min): 1.34 | Substrate assessment (OCT3) (human OCT3; 0.03, 0.30 µM, 2, 20 min): no in vitro substrate | Max. transporter-specific fold accumulation, without inhibitor (human OCT3; 20 min, 0.3 µM): 1.34 | Accumulation in MATE1 transporter expressing cells (human MATE1; 0.03 µM nominal, 2 min): 0.07 ± 0.01 pmol/mg protein | Accumulation in control cells (human MATE1; 0.03 µM nominal, 2 min): 0.12 ± 0.01 pmol/mg protein | Accumulation, active transport (human MATE1; 0.03 µM nominal, 2 min): -0.05 ± 0.02 pmol/mg protein | Fold accumulation (human MATE1; 0.03 µM nominal, 2 min): 0.60 | Accumulation in MATE1 transporter expressing cells (human MATE1; 0.03 µM nominal, 20 min): 0.09 ± 0.00 pmol/mg protein | Accumulation in control cells (human MATE1; 0.03 µM nominal, 20 min): 0.19 ± 0.02 pmol/mg protein | Accumulation, active transport (human MATE1; 0.03 µM nominal, 20 min): -0.10 ± 0.02 pmol/mg protein | Fold accumulation (human MATE1; 0.03 µM nominal, 20 min): 0.49 | Accumulation in MATE1 transporter expressing cells (human MATE1; 0.30 µM nominal, 2 min): 0.67 ± 0.05 pmol/mg protein | Accumulation in control cells (human MATE1; 0.30 µM nominal, 2 min): 0.82 ± 0.11 pmol/mg protein | Accumulation, active transport (human MATE1; 0.30 µM nominal, 2 min): -0.15 ± 0.12 pmol/mg protein | Fold accumulation (human MATE1; 0.30 µM nominal, 2 min): 0.81 | Accumulation in MATE1 transporter expressing cells (human MATE1; 0.30 µM nominal, 20 min): 0.77 ± 0.12 pmol/mg protein | Accumulation in control cells (human MATE1; 0.30 µM nominal, 20 min): 1.02 ± 0.12 pmol/mg protein | Accumulation, active transport (human MATE1; 0.30 µM nominal, 20 min): -0.26 ± 0.17 pmol/mg protein | Fold accumulation (human MATE1; 0.30 µM nominal, 20 min): 0.75 | Substrate assessment (MATE1) (human MATE1; 0.03, 0.30 µM, 2, 20 min): no in vitro substrate | Max. transporter-specific fold accumulation, without inhibitor (human MATE1; 2 min, 0.3 µM): 0.81
